Consider 5 compounds from patent US11779564B2, “Methods and compositions for treating bile acid diarrhea, diarrhea associated with small intestine resection or gallbladder removal, and short bowel syndrome” (NAPO PHARMACEUTICALS, INC., priority 2017, dated 2023).

Data set [1] relates to chronic diarrhea in patient with SBS. In words: Case report: SBS patient with chronic diarrhea (Example 1). Particulars: same patient, attempted for 12 years before crofelemer.
The conditions of data set [2]: in vivo, cited from earlier work.

Take `CN1[C@@H]2CC[C@H]1C[C@@H](OC(=O)C(CO)c1ccccc1)C2` (stereo partly shown) [atropine]: the “effectiveness in relieving diarrhea symptoms (earlier treatments)” value (“effectiveness” below) in data set [1] is on record as “None of which were effective”.

For `COc1ccc2c3c1O[C@H]1[C@@H](O)C=C[C@H]4[C@@H](C2)N(C)CC[C@@]341` [codeine], the “effectiveness” value in data set [1] is listed as “None of which were effective”. For `CCOC(=O)C1(c2ccccc2)CCN(CCC(C#N)(c2ccccc2)c2ccccc2)CC1` [diphenoxylate], the “effectiveness” value in data set [1] is listed as “None of which were effective”. On the same count and under the same terms, the entry for `CN(C)C(=O)C(CCN1CCC(O)(c2ccc(Cl)cc2)CC1)(c1ccccc1)c1ccccc1` [loperamide] is “None of which were effective”.

crofelemer: the systemic bioavailability result in data set [2] (human) is “virtually no systemic bioavailability”. In data set [2], the “absorption from the GI tract” value is listed as “little or no absorption” and the tolerability result is recorded as “well tolerated”.
